For this assay, the target named is T1, streptavidin (Streptomyces avidinii, UniProt P22629).
T1 construct: purchased GE Healthcare (Little Chalfont, UK)
Briefly: Cy5-streptavidin binding on HotSpot discovery array, 5-mer L-peptide library. The note with it: for S/B: signal to background ratio. Put shortly:
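Array of 2,476,099 5-mer peptides (19 amino acids, no cysteine) with Gly-Ser linkers, probed overnight at 4 °C with 0.5 µg/ml Cy5-streptavidin in Tris pH 7.4 buffer containing casein or BSA plus Tween-20. Cy5 fluorescence read at 635 nm; peptides selected by signal-to-background >4 across three arrays.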

[1] abbreviates: 5-mer L-peptide library array, Cy5-streptavidin.
The mark [2] stands for this setting: 5-mer L-peptide library array, Cy5-streptavidin, from average of three arrays.
Where [3] appears, read: 5-mer L-peptide library array, Cy5-streptavidin, from the average of three arrays.
Setting [4] is: average of three arrays, L-peptide 5-mer library.

T1 sequence (P22629 25-183): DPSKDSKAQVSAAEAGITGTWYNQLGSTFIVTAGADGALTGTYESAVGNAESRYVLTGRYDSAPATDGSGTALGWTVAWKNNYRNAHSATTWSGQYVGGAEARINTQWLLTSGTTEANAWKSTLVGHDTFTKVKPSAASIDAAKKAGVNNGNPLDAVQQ

As for KHPQT, the S/B under setting [1] worked out at 7.6.

KHPQV: under setting [2], the “S/B (signal to background ratio)” value amounted to 33.0.

With KHPQW, the S/B under setting [1] was found to be 9.2.

In the case of KHPQY, the S/B under setting [1] is recorded as 18.3.

Take KIHPQ: the “S/B (signal to background ratio)” value under setting [3] came out at 60.4.

Regarding KKHPQ, the “S/B (signal to background ratio)” value under setting [2] amounted to 22.5.

For the substance KLHPQ, under setting [3], the “S/B (signal to background ratio)” value was determined as 71.4.

As for KMHPM, the “S/B (signal to background ratio)” value under setting [2] amounted to 22.0.

As to KMHPQ, the “S/B (signal to background ratio)” value under setting [3] is 80.4.

Take KNHPQ: under setting [3], the “S/B (signal to background ratio)” value stood at 104.8.

For KPHPM, under setting [2], the “S/B (signal to background ratio)” value stood at 21.9.

KPHPQ: under setting [3], the “S/B (signal to background ratio)” value amounted to 117.2.

In the case of KQHPQ, the “S/B (signal to background ratio)” value under setting [3] came to 94.4.

Regarding KSHPQ, the “S/B (signal to background ratio)” value under setting [3] turned out to be 80.0.

As for KTHPQ, under setting [3], the “S/B (signal to background ratio)” value amounted to 86.3.

In the case of KVHPQ, the “S/B (signal to background ratio)” value under setting [3] is 65.5.

As for KWHPQ, under setting [2], the “S/B (signal to background ratio)” value is reported as 127.9.

Turning to KYHPQ, under setting [2], the “S/B (signal to background ratio)” value worked out at 140.2.

As for “LAAYH [L-amino acid 5-mer array peptide]”, the “S/B (signal to background ratio)” value reads like this: under setting [3], 67.7; under setting [4], 67.7.

For “LAEYH [L-amino acid 5-mer array peptide]”, the “S/B (signal to background ratio)” value reads like this: under setting [2], 45.0; under setting [4], 45.0.

Turning to “LAFFH [L-amino acid 5-mer array peptide]”, the “S/B (signal to background ratio)” value is, setting by setting: (5-mer L-peptide library, from the average of three arrays) 4.9; under setting [4], 4.9.

Take “LAFYH [L-amino acid 5-mer array peptide]”: the “S/B (signal to background ratio)” value under setting [4] came out at 7.8. Besides, the S/B under setting [1] worked out at 7.8.

With LAHPM, the “S/B (signal to background ratio)” value under setting [3] was determined as 62.9.

LAHPQ: under setting [2], the “S/B (signal to background ratio)” value is given as 168.6.

As to “LAKYH [L-amino acid 5-mer array peptide]”, under setting [4], the “S/B (signal to background ratio)” value amounted to 12.2. Also, the S/B under setting [1] is 12.2.

With “LAMFH [L-amino acid 5-mer array peptide]”, the “S/B (signal to background ratio)” value turned out to be 21.1 under setting [2] and 21.1 under setting [4].

As to “LAMYH [L-amino acid 5-mer array peptide]”, the “S/B (signal to background ratio)” value was 22.8 under setting [2] and 22.8 under setting [4].

As for “LAQFH [L-amino acid 5-mer array peptide]”, the “S/B (signal to background ratio)” value amounted to 39.7 under setting [2] and 39.7 under setting [4].

Regarding “LARYH [L-amino acid 5-mer array peptide]”, the “S/B (signal to background ratio)” value under setting [4] was 12.2. Also, the S/B under setting [1] amounted to 12.2.

Turning to “LASYH [L-amino acid 5-mer array peptide]”, the “S/B (signal to background ratio)” value is reported as 25.7 under setting [2] and 25.7 under setting [4].

For “LATFH [L-amino acid 5-mer array peptide]”, the “S/B (signal to background ratio)” value under setting [4] is listed as 6.2. Moreover, the S/B under setting [1] is given as 6.2.

As for “LAVYH [L-amino acid 5-mer array peptide]”, the “S/B (signal to background ratio)” value by setting is: under setting [2], 27.0; under setting [4], 27.0.

For LDHPQ, under setting [3], the “S/B (signal to background ratio)” value was determined as 89.3.

Take LFHPQ: under setting [2], the “S/B (signal to background ratio)” value is 138.2.

For “LGAFH [L-amino acid 5-mer array peptide]”, the “S/B (signal to background ratio)” value under setting [2] was 52.3 and the “S/B (signal to background ratio)” value under setting [4] was 52.3.

Regarding “LGAYH [L-amino acid 5-mer array peptide]”, the “S/B (signal to background ratio)” value is reported as 52.2 under setting [2] and 52.2 under setting [4].

For “LGEYH [L-amino acid 5-mer array peptide]”, the “S/B (signal to background ratio)” value is, setting by setting: under setting [2], 21.3; under setting [4], 21.3.

Take “LGGYH [L-amino acid 5-mer array peptide]”: the “S/B (signal to background ratio)” value under setting [4] was 6.1. Moreover, under setting [1], the S/B is 6.1.

Take LGHPM: the “S/B (signal to background ratio)” value under setting [3] turned out to be 76.1.

With LGHPQ, the “S/B (signal to background ratio)” value under setting [2] is reported as 171.2.

“LGIYH [L-amino acid 5-mer array peptide]”: the “S/B (signal to background ratio)” value under setting [4] came to 10.5. Besides, the S/B under setting [1] is reported as 10.5.

For “LGKYH [L-amino acid 5-mer array peptide]”, the “S/B (signal to background ratio)” value under setting [4] was determined as 6.7. Further, the S/B under setting [1] was found to be 6.7.

On to “LGPFH [L-amino acid 5-mer array peptide]”, for which the “S/B (signal to background ratio)” value by setting is: under setting [2], 51.1; under setting [4], 51.1.

Regarding “LGQFH [L-amino acid 5-mer array peptide]”, the “S/B (signal to background ratio)” value runs as follows: under setting [2], 21.5; under setting [4], 21.5.

“LGQYH [L-amino acid 5-mer array peptide]”: the “S/B (signal to background ratio)” value runs as follows: under setting [2], 31.1; under setting [4], 31.1.

For the substance “LGRFH [L-amino acid 5-mer array peptide]”, the “S/B (signal to background ratio)” value under setting [4] turned out to be 8.7. Further, the S/B under setting [1] is 8.7.

“LGRYH [L-amino acid 5-mer array peptide]”: under setting [4], the “S/B (signal to background ratio)” value came to 9.7. Further, under setting [1], the S/B came out at 9.7.

As to “LGSFH [L-amino acid 5-mer array peptide]”, under setting [4], the “S/B (signal to background ratio)” value stood at 8.7. The S/B under setting [1] is listed as 8.7.

For LHHPQ, the “S/B (signal to background ratio)” value under setting [2] is 188.8.

LHPMA: under setting [2], the “S/B (signal to background ratio)” value came out at 41.0.

Consider LHPMI, for which the S/B under setting [1] was determined as 5.3.

Turning to LHPMM, the S/B under setting [1] stood at 5.2.

LHPMN: the S/B under setting [1] was 9.7.

LHPMR: the S/B under setting [1] is 7.0.

In the case of LHPMS, the “S/B (signal to background ratio)” value under setting [2] was 22.2.

For the substance LHPMY, the S/B under setting [1] is recorded as 7.0.

For the substance LHPQA, the “S/B (signal to background ratio)” value under setting [2] came out at 128.0.

With LHPQF, under setting [3], the “S/B (signal to background ratio)” value was found to be 107.9.

In the case of LHPQH, the “S/B (signal to background ratio)” value under setting [2] turned out to be 38.5.

Regarding LHPQM, the “S/B (signal to background ratio)” value under setting [2] was 29.4.

For the substance LHPQN, the “S/B (signal to background ratio)” value under setting [3] was found to be 105.2.

Regarding LHPQT, the S/B under setting [1] was 15.6.

For the substance LHPQV, the “S/B (signal to background ratio)” value under setting [3] was determined as 74.5.

LHPQW: the S/B under setting [1] is 12.4.

LIHPQ: the “S/B (signal to background ratio)” value under setting [2] was 120.1.

For the substance LKHPM, the “S/B (signal to background ratio)” value under setting [2] came out at 26.3.

Take LKHPQ: under setting [3], the “S/B (signal to background ratio)” value is listed as 83.5.

As to LLHPQ, the “S/B (signal to background ratio)” value under setting [3] amounted to 105.6.

With LMHPM, the “S/B (signal to background ratio)” value under setting [3] turned out to be 66.9.

With LMHPQ, the “S/B (signal to background ratio)” value under setting [2] amounted to 161.1.

Consider LNHPQ, for which the “S/B (signal to background ratio)” value under setting [2] is 152.2.

On to LPHPM, for which the “S/B (signal to background ratio)” value under setting [3] is reported as 58.1.

Regarding LPHPQ, under setting [2], the “S/B (signal to background ratio)” value came out at 180.6.

Turning to LQHPM, the “S/B (signal to background ratio)” value under setting [3] worked out at 62.8.

With LQHPQ, the “S/B (signal to background ratio)” value under setting [2] turned out to be 163.6.

On to “LSAYH [L-amino acid 5-mer array peptide]”, for which the “S/B (signal to background ratio)” value under setting [4] is listed as 17.7. The S/B under setting [1] amounted to 17.7.

As for LSHPM, the “S/B (signal to background ratio)” value under setting [2] is reported as 55.5.

In the case of LSHPQ, the “S/B (signal to background ratio)” value under setting [2] is 156.2.

In the case of “LSVYH [L-amino acid 5-mer array peptide]”, the “S/B (signal to background ratio)” value under setting [4] is reported as 5.3. Besides, the S/B under setting [1] was found to be 5.3.

With LTHPM, the “S/B (signal to background ratio)” value under setting [3] worked out at 64.2.

As for LTHPQ, the “S/B (signal to background ratio)” value under setting [2] is on record as 150.0.

LVHPM: the “S/B (signal to background ratio)” value under setting [2] is on record as 31.0.

The record behind these values is article PMC5608804, “Stepwise Evolution Improves Identification of Diverse Peptides Binding to a Protein Target” (Scientific Reports, 2017).
